Patent US7820839B2, “Taxoid-fatty acid conjugates and pharmaceutical compositions thereof” (The Research Foundation of State University of New York, priority 2003, dated 2010)
Where two headings read alike, the source gives them in different places.

Legend:
[1] = system: pgp+ human colon tumor xenograft, DLD-1; conditions: for Days to 600 mm^3 Median / Growth Delay / Toxicity: number of animals who either died or lost greater than 20% body weight: SCID mice; for Days to 600 mm^3 Median / Growth Delay / Toxicity: number of animals who either died or lost greater than 20% body weight / Tumor free mice/Group: DLD-1; for Tumor free mice/Group: tumors less than 600 mm^3 on day 201
Protocol: (§1) Female severe combined immune deficient, (SCID) mice aged six to eight weeks were obtained from either the in-house breeding facility at Roswell Park Cancer Institute or Taconic (Germantown, N.Y.). All aspects of animal care complied with the Institutional Animal Care and Use Committee guidelines. […] Tumors were initiated by implantation of approximately 50 mg of non-necrotic tumor fragments on the right flank using a 12-guage trocar needle. Chemotherapy was started when the tumor was established as a palpable mass, (approximately 50-100 mm^3 size). Therapy consisted of i.v. injections through the tail vein, given four times, three days apart. Each drug treatment group or drug free vehicle consisted of 4-5 mice per group, untreated controls contained 10 mice per group.
(§2) These were used for comparison purposes. DHA-taxoids and other omega-3 fatty acid-taxoids were prepared as a 30 mg/mL stock solution in equal parts of Tween 80 (polyoxyethylene-sorbitan monooleate; purchased from Sigma Chemical Company) and absolute ethanol. To stablize the formulation of the DHA-taxoids and other omega-3 fatty acid-taxoids, antioxidants, L-ascorbic acid (3.9 mM) and α-tocopherol (2.0 mM), were added. Each stock solution was further diluted before use in 0.9% NaCl (saline) so that the appropriate concentration of each drug could be injected i.v. via the tail vein, in a volume of approximately 0.4 mL for a 20 g mouse. Each drug was administered once a day on […].
(§3) For each animal, the tumor length (1) and width (w), each in mm, were measured using electronic calipers and recorded every 3-4 days. Tumor volume (v), in mm^3, was calculated using the formula: v=0.4(l×w^2). The time in days to the pre-determined target tumor volume of 600 mm^3 was linearly interpolated from a plot of log(volume) versus time. Statistically significant differences in tumor volumes between control and drug-treated mice were determined by the Cox-Mantel test. […] All statistical tests were two-sided.

[2] = system: Madison 109 subcutaneous lung tumor; conditions: cited from earlier work
[3] = cited from earlier work
[4] = system: human ovarian tumor xenograft (pgp−) A121; assay: In vivo tumor growth assay, A121 xenograft in SCID mice; conditions: for Tumor free mice/Group: no palpable tumor on day 197; for Tumor free mice/Group / Days to 600 mm^3 Median / Growth Delay / Toxicity: number of animals who either died or lost greater than 20% body weight: A121; for Days to 600 mm^3 Median / Growth Delay / Toxicity: number of animals who either died or lost greater than 20% body weight: SCID mice; for antitumor effect (in words): human ovarian tumor xenograft (pgp−) A121, SCID mice
Protocol: as §1, §2, §3

[5] = system: human colon carcinoma SW-620 xenografts; conditions: SW-620 xenografts in mice; cited from earlier work
[6] = system: human breast cancer cell line MCF7-MDR; conditions: drug-resistant, MDR phenotype; cited from earlier work
[7] = total dose 75 mg/kg (25 mg/kg/inj) i.v. day 5, 8 and 11
[8] = total dose 75 mg/kg (25 mg/kg/inj) i.v.
[9] = total dose 150 mg/kg (50 mg/kg/inj) i.v. day 5, 8 and 11
[10] = total dose 150 mg/kg (50 mg/kg/inj) i.v.
[11] = total dose 240 mg/kg (80 mg/kg/inj) i.v. day 5, 8 and 11
[12] = total dose 240 mg/kg (80 mg/kg/inj) i.v.
[13] = total dose 90 mg/kg (30 mg/kg/inj) i.v.
[14] = total dose 60 mg/kg (20 mg/kg/inj) i.v.

SMILES | Days to 600 mm^3 Median [1, 7] [days] | Growth Delay [1, 8] [days] | Days to 600 mm^3 Median [1, 9] [days] | Growth Delay [1, 10] [days] | Toxicity: number of animals who either died or lost greater than 20% body weight [1, 10] | Tumor free mice/Group [1, 8] | Tumor free mice/Group [1, 10] | Days to 600 mm^3 Median [1, 11] [days] | Growth Delay [1, 12] [days] | Toxicity: number of animals who either died or lost greater than 20% body weight [1, 12] | Tumor free mice/Group [1, 12] | antitumor effect (in words) [4] | also measured
CC/C=C\C/C=C\C/C=C\C/C=C\C/C=C\C/C=C/CCC(=O)O[C@@H](C(=O)O[C@H]1C[C@@]2(O)[C@@H](OC(=O)c3ccccc3)C3[C@]4(OC(C)=O)COC4C[C@H](O)[C@@]3(C)C(=O)[C@H](O)C(=C1C)C2(C)C)[C@@H](NC(=O)OC(C)(C)C)c1ccccc1 (stereo partly shown) [DHA-Docetaxel, reference compound] | 31 | 17 | 48 | 34 | 0 | 0/4 | 0/4 | – | – | – | – | – | Toxicity: number of animals who either died or lost greater than 20% body weight [1, 8]: 0
CC/C=C\C/C=C\C/C=C\C/C=C\C/C=C\C/C=C\CCC(=O)O[C@@H](C(=O)O[C@@H]1C(C)=C2[C@@H](OC(C)=O)C(=O)[C@@]3(C)[C@H]([C@H](OC(=O)c4ccccc4)[C@@]4(OC(=O)O[C@@H]14)C2(C)C)[C@]1(OC(C)=O)CO[C@@H]1C[C@@H]3O)[C@H](CC(C)C)NC(=O)OC(C)(C)C [DHA-IDN-5109, 2′-Docosahexaenoyl-3′-dephenyl-3′-(2-methylpropyl)-10-acetyldocetaxel-1,14-carbonate] | – | – | 14 | 0 | 0 | – | 0/5 | – | – | – | – | – | –
CC/C=C\C/C=C\C/C=C\C/C=C\C/C=C\C/C=C/CCC(=O)O[C@@H](C(=O)O[C@H]1C[C@@]2(O)[C@@H](OC(=O)c3ccccc3)C3[C@](C)(C(=O)[C@H](OC(C)=O)C(=C1C)C2(C)C)[C@@H](O)C[C@H]1OC[C@@]31OC(C)=O)[C@@H](NC(=O)c1ccccc1)c1ccccc1 (stereo partly shown) [DHA-Paclitaxel, reference compound] | – | – | – | – | – | – | – | 18 | 4 | 0 | 0/5 | – | duration of sustained regression ([2]; optimum dose of 120 mg/kg, all mice): sixty; regression of lung tumor xenografts ([2]; optimum dose of 120 mg/kg, mice): complete regression; lower clearance rate than paclitaxel ([3]; mice): 94 fold; stability in plasma ([3]; plasma): stable in plasma; Tumor free mice/Group [4, 12]: 2/5; Days to 600 mm^3 Median [4, 12]: 197 days; Growth Delay [4, 12]: 186 days; Toxicity: number of animals who either died or lost greater than 20% body weight [4, 12]: 0
CC/C=C\C/C=C\C/C=C\C/C=C\C/C=C\C/C=C/CCC(=O)O[C@@H](C(=O)O[C@H]1C[C@@]2(O)[C@@H](OC(=O)c3ccccc3)C3[C@](C)(C(=O)[C@H](OC(=O)CC)C(=C1C)C2(C)C)[C@@H](O)C[C@H]1OC[C@@]31OC(C)=O)[C@H](CC(C)C)NC(=O)OC(C)(C)C (stereo partly shown) [DHA-SB-T-1103, 2′-Docosahexaenoyl-3′-dephenyl-3′-(2-methylpropyl)-10-propanoyldocetaxel] | 18 | 4 | – | – | – | 0/5 | – | – | – | – | – | – | –
CC/C=C\C/C=C\C/C=C\C/C=C\C/C=C\C/C=C/CCC(=O)O[C@@H](C(=O)O[C@H]1C[C@@]2(O)[C@@H](OC(=O)c3ccccc3)C3[C@](C)(C(=O)[C@H](OC(=O)C4CC4)C(=C1C)C2(C)C)[C@@H](O)C[C@H]1OC[C@@]31OC(C)=O)[C@H](CC(C)C)NC(=O)OC(C)(C)C (stereo partly shown) [DHA-SB-T-1104, 2′-Docosahexaenoyl-3′-dephenyl-3′-(2-methyl-1-propyl)-10-cyclopropanecarbonyldocetaxel] | – | – | – | – | – | – | – | 18 | 4 | 0 | 0/5 | effective tumor growth delay | Tumor free mice/Group [4, 12]: 0/5; Days to 600 mm^3 Median [4, 12]: 126 days; Growth Delay [4, 12]: 115 days; Toxicity: number of animals who either died or lost greater than 20% body weight [4, 12]: 0
CC/C=C\C/C=C\C/C=C\C/C=C\C/C=C\C/C=C/CCC(=O)O[C@@H](C(=O)O[C@H]1C[C@@]2(O)[C@@H](OC(=O)c3ccccc3)C3[C@](C)(C(=O)[C@H](OC(=O)CC)C(=C1C)C2(C)C)[C@@H](O)C[C@H]1OC[C@@]31OC(C)=O)[C@H](C=C(C)C)NC(=O)OC(C)(C)C (stereo partly shown) [DHA-SB-T-1213, 2′-Docosahexaenoyl-3′-dephenyl-3′-(2-methyl-1-propenyl)-10-propanoyldocetaxel] | 68 | 54 | – | – | – | 0/5 | – | – | – | – | – | excellent results | Tumor free mice/Group [4, 13]: 4/5; Days to 600 mm^3 Median [4, 13]: >197 days; Growth Delay [4, 13]: >186 days
CC/C=C\C/C=C\C/C=C\C/C=C\C/C=C\C/C=C\CCC(=O)O[C@@H](C(=O)O[C@H]1C[C@@]2(O)[C@@H](OC(=O)c3ccccc3)[C@@H]3[C@]4(OC(C)=O)CO[C@@H]4C[C@H](O)[C@@]3(C)C(=O)[C@H](OC(=O)C3CC3)C(=C1C)C2(C)C)[C@H](C=C(C)C)NC(=O)OC(C)(C)C [DHA-SB-T-1214, 2′-Docosahexaenoyl-3′-dephenyl-3′-(2-methyl-1-propenyl)-10-cyclopropanecarbonyldocetaxel] | – | – | – | – | – | – | – | >201 | >187 | 0 | 5/5 | – | survival of mice ([1]; day 201, DLD-1, SCID mice): all mice were alive on day 201; tumor detected in treated mice ([1]; day 201, DLD-1, SCID mice): no trace of tumor was detected; antitumor effect (in words) ([1]; drug-resistant human colon tumor xenografts in SCID mice): remarkable antitumor effect
CC/C=C\C/C=C\C/C=C\C/C=C\C/C=C\C/C=C/CCC(=O)O[C@@H](C(=O)O[C@H]1C[C@@]2(O)[C@@H](OC(=O)c3ccccc3)C3[C@](C)(C(=O)[C@H](OC(=O)N(C)C)C(=C1C)C2(C)C)[C@@H](O)C[C@H]1OC[C@@]31OC(C)=O)[C@H](C=C(C)C)NC(=O)OC(C)(C)C (stereo partly shown) [DHA-SB-T-1216] | – | – | – | – | – | – | – | – | – | – | – | effective tumor growth delay | Tumor free mice/Group [4, 13]: 1/5; Days to 600 mm^3 Median [4, 13]: >197 days; Growth Delay [4, 13]: >186 days; Toxicity: number of animals who either died or lost greater than 20% body weight [4, 13]: 4
CC(=O)O[C@H]1C(=O)[C@@]2(C)[C@H]([C@H](OC(=O)c3ccccc3)[C@]34OC(=O)O[C@H]3[C@H](OC(=O)[C@H](O)[C@H](CC(C)C)NC(=O)OC(C)(C)C)C(C)=C1C4(C)C)[C@]1(OC(C)=O)CO[C@@H]1C[C@@H]2O [IDN-5109, ortataxel, reference compound] | – | – | 46 | 32 | 0 | – | 0/3 | – | – | – | – | – | activity against xenografts (in words) [5]: impressive activity
CC(=O)O[C@H]1C(=O)[C@@]2(C)[C@H]([C@H](OC(=O)c3ccccc3)[C@]3(O)C[C@H](OC(=O)[C@H](O)[C@@H](NC(=O)c4ccccc4)c4ccccc4)C(C)=C1C3(C)C)[C@]1(OC(C)=O)CO[C@@H]1C[C@@H]2O [Paclitaxel, reference compound] | – | – | – | – | – | – | – | – | – | – | – | – | regression of the tumors ([2]; optimum dose of 20 mg/kg, mice): neither complete nor partial regression; Days to 600 mm^3 Median ([1]; total dose 60 mg/kg (20 mg/kg/inj) i.v. day 5, 8 and 11): 22 days; Growth Delay [1, 14]: 8 days; Toxicity: number of animals who either died or lost greater than 20% body weight [1, 14]: 0; Tumor free mice/Group [1, 14]: 0/3; Tumor free mice/Group [4, 14]: 0/5; Days to 600 mm^3 Median [4, 14]: 94 days; Growth Delay [4, 14]: 83 days; Toxicity: number of animals who either died or lost greater than 20% body weight [4, 14]: 0; IC50 [6]: 300 to 800 nM
